Assay results reported in patent US8119355B2, “Biomarkers for cancer sensitivity and uses thereof” (The UAB Research Foundation, priority 2006, dated 2012).

Key:
[1] = test system: COLO 205 tumors; assay: COLO 205 xenograft model, tumor size; type: in vivo, athymic nude mice; conditions: TRA-8 10 mg/kg intraperitoneally days 16 and 20; CPT-11 33 mg/kg intravenously days 17 and 21
Procedure: Preparation of sera from tumor-bearing mice. COLO 205 cells (1×10^7) were inoculated subcutaneously into athymic nude mice on day 0. The mice were grouped randomly. Each of the groups consisted of 3 mice. TRA-8 (10 mg/kg) was administered intraperitoneally to mice on days 16 and 20. CPT-11 (33 mg/kg) was administered intravenously to mice on days 17 and 21. Length and width of solid tumors were measured twice weekly. Tumor volume (mm^3) was calculated as axb^2/2, where a and b are the length and the width (mm) of the tumor, respectively. Tumor size was determined as a percentage relative to the tumor volume on day 16. Sera were obtained from the tumor-bearing mice on day 23.

[2] = test system: COLO 205 human colon cancer cells; assay: cell viability, ATPLite assay, serum-free condition; type: cell-based; conditions: for effect on cell viability: 48 h; for cells killed: incubation time (24 or 48 h) not given
Procedure: (§1) Cell viability analysis: To examine the effect of the serum, the cells (2×10^4) were plated onto well of a 96-well microplate and cultured in complete culture medium at 37° C. for 24 h, washed with serum-free medium, and further incubated in 100 μl of complete medium or serum-free medium at 37° C. for the indicated times. Cell viability was assessed by measurement of cellular ATP levels using ATPlite™-M luminescence assay system (PerkinElmer, Inc., Waltham, Mass.) according to the manufacturer's instructions, and determined as a percentage relative to the luminescence value of cells, which were cultured in complete medium, used as a control. The assay of cell viability was repeated in triplicate experiments. Data were statistically analyzed by the Student t test. In case of the Student t test, if variance of homogeneity was rejected (P<0.05 by F test), the Welch test was applied. Probability values (P-values) less than 0.05 were considered to be statistically significant. All P-values were rounded to four decimal places.
(§2) To evaluate the effect of TRA-8 in serum-free condition, the cells were cultured as described above, washed with serum-free medium and treated with or without TRA-8 or chemotherapeutic agents in 100 μl of serum-free medium at 37° C. for the indicated times. Cell viability was assessed using ATPLite™ assay (PerkinElmer, Inc., Waltham, Mass.) and determined as a percentage relative to the luminescence value of untreated cells used as a control. The assay of cell viability was repeated in triplicate experiments.

[3] = test system: WiDr human colon cancer cells; assay: as above; type: cell-based; conditions: for cells killed: incubation time (24 or 48 h) not given
Procedure: as §1, §2

SMILES	antitumor efficacy (tumor size) [1]	effect on cell viability ([2]; 50 μM agent)	cells killed ([2]; 50 μM agent) [%]	effect on cell viability ([3]; 50 μM oxaliplatin, 24 h)	effect on cell viability ([3]; 50 μM oxaliplatin, 48 h)	cells killed ([3]; 50 μM oxaliplatin) [%]	effect on cell viability ([2]; 1 μM paclitaxel)	cells killed ([2]; 1 μM paclitaxel) [%]	effect on cell viability ([3]; 1 μM paclitaxel, 48 h)	cells killed ([3]; 1 μM paclitaxel) [%]
CCc1c2c(nc3ccc(OC(=O)N4CCC(N5CCCCC5)CC4)cc13)-c1cc3c(c(=O)n1C2)COC(=O)[C@]3(O)CC [CPT-11]	not antitumor effects	significant effect	71	–	–	–	–	–	–	–
O=C1[O][Pt]2([NH][C@@H]3CCCC[C@H]3[NH]2)[O]C1=O [oxaliplatin]	–	affected cell viability	41	significant effect	affected cell viability	99	–	–	–	–
CC(=O)O[C@H]1C(=O)[C@@]2(C)[C@H]([C@H](OC(=O)c3ccccc3)[C@]3(O)C[C@H](OC(=O)[C@H](O)[C@@H](NC(=O)c4ccccc4)c4ccccc4)C(C)=C1C3(C)C)[C@]1(OC(C)=O)CO[C@@H]1C[C@@H]2O [paclitaxel]	–	–	–	–	–	–	affected cell viability	62	affected cell viability	72
